The source of these data is US11459339B2, “Biaryl derivative, preparation method thereof and pharmaceutical application thereof” (Abbisko Therapeutics Co., Ltd., priority 2018, dated 2022).

Data set [1] concerns the target interaction between PD-1 and PD-L1 (Homo sapiens (Human), UniProt Q9NZQ7). Description: PD1-PDL1 HTRF binding activity test (Cisbio PD-1/PD-L1 binding assay kit). Particulars: read-out: PD1-PDL1 HTRF Binding Activity IC50. On the technique in general: TR-FRET usually uses a lanthanide donor and a delayed reading to cut background.
Data set [2] addresses interaction between PD-1 and PD-L1 expressed on cell surfaces (Homo sapiens (Human), UniProt Q9NZQ7). Description: Jurkat reporter gene cellular assay (Jurkat/NF-κB-luc/PD1 cells cocultured with Raji-PD-L1 cells, OKT-3 stimulation). It counts as cell-based. The settings on record: NF-κB-luc reporter activation fold, 6 hrs; read-out: Cell Activity EC50. In a few lines: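 Jurkat cells stably expressing human PD-1 and NF-κB-luciferase were cocultured with Raji cells stably expressing human PD-L1 under OKT-3 stimulation, with compound present. Luminescence was read after 6 h.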
(In general: In a reporter assay the amount or activity of a reporter protein is the signal.)

The nature of data set [3]: Pharmacokinetic assay in mice, per oral administration. It counts as in vivo. Particulars: ICR mice. The source says:
C. Pharmacokinetic Assay in Mice
The purpose of this study was to study the pharmacokinetic behaviors of some compounds of the present invention, and administration routes were: per oral administration (PO) to ICR mice:
The compounds used in this test came from the compounds of the specific examples of the present invention.
ICR mice male N=3 original source: Shanghai Sippr-BK Laboratory Animal Co. Ltd.
2.3 Preparation and Administration of Medicaments
The compounds were weighed, and dissolved in solvent of 0.5% SDS+0.5% CMCNa. The mixture solutions were mixed well by shaking and ultrasonic treatment to obtain colorless clear solutions. The solutions were orally administered to nine mice after an overnight fast. The dosage of administration was 10 mg/kg (or 30 mg/kg).
With about 90 μL/time point, blood was drawn from the submaxillary vein, and heparin sodium was added for anticoagulation. The blood samples were placed onto the ice, and were centrifuged (centrifugation conditions: 8000 r/min, 6 min, 2-8° C.) within 1 hr to obtain plasmas. The time points for blood sampling were at 0 hr, 0.25 hr, 0.5 hr, 1 hr, 2 hrs, 4 hrs, 6 hrs, 8 hrs and 24 hrs after administration. The samples were stored in a refrigerator at −20° C.
40 μL of plasma sample was added to 160 μL of cold acetonitrile containing an internal standard, and the mixture solution was vortexed for 3 min and centrifuged at 11,000 r/min for 5 min. 100 μL of supernate was taken and added to 100 μL of water, and 5 μL of the sample was taken and analyzed by LC/MS/MS. Only the original compounds were analyzed for examples 1, 3, 5, 8, 46 and 141 (for results, see table 2); and both the original compounds and possible products of ester hydrolysis, namely example 2, 27, 65 and 105, were analyzed for examples 4, 26, 64 and 104 (for results, see table 3).

The structures appear in SMILES notation.

Chain of interaction between PD-1 and PD-L1 expressed on cell surfaces (Q9NZQ7 19-290): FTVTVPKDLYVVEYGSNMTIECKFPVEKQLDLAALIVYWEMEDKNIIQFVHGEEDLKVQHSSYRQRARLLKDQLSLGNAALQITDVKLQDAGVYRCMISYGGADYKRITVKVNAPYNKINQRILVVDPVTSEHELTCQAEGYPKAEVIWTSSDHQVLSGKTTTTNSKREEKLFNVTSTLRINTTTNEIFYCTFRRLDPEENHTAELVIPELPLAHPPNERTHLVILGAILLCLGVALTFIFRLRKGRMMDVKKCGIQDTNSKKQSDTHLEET
Chain of interaction between PD-1 and PD-L1 (Q9NZQ7 19-238): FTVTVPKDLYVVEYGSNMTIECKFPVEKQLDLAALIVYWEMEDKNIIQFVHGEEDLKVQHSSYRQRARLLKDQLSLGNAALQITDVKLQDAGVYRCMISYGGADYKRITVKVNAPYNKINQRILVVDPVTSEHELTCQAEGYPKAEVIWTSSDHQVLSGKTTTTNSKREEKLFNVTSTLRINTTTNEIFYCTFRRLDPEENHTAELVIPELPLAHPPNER

The term IC50 denotes the concentration that inhibits the measured activity by half. The EC50 is the concentration at which the effect is half-maximal. On to `COC(=O)[C@@H](CO)NCc1cnc(C(=O)Nc2cccc(-c3cccc(NC(=O)c4cc(C5CC5)c(CN[C@H](CO)C(=O)OC)cn4)c3C)c2C)cc1C1CC1` [Example 104], for which the concentration for half-maximal inhibition (IC50) in data set [1] came out at 1.57 nM. Besides, in data set [2], the EC50 amounted to 296 nM. Also, the Cmax entry in data set [3] (Table 3, PO 10 mpk, original compound (ester 104) analyzed) was “BQL”. Further, in data set [3] (oral administration), the “ester hydrolysis in the bodies of the mice after oral administration” value is given as “rapidly became corresponding acids”.

With `COc1cc(C(=O)Nc2cccc(-c3cccc(NC(=O)c4cc(OC)c(CNCCO)cn4)c3Cl)c2C)ncc1CNCCO` [Example 141, N,N′-(2-chloro-2′-methyl-[1,1′-biphenyl]-3,3′-diyl)bis(5-(((2-hydroxyethyl)amino)methyl)-4-methoxypicolinamide)], in data set [1], the IC50 turned out to be 0.75 nM. The EC50 in data set [2] worked out at 74 nM. Also, the Cmax result in data set [3] (PO 10 mg/kg, plasma, original compound analyzed) was “BQL”.
